The results in this text go back to patent US20130217664A1, “NOVEL COMPOUNDS USEFUL FOR THE TREATMENT OF DEGENERATIVE AND INFLAMMATORY DISEASES” (priority 2012, published 2013).

In one test the target is T1, human JAK1 (Homo sapiens, UniProt P23458).
T1 construct: catalytic domain, amino acids 866-1154; catalog number PV4774; purchased Invitrogen PV4774
Kind of test: JAK1 inhibition assay (polyGT substrate / Ulight-JAK1 peptide). Type of test: biochemical. The conditions noted are these: recombinant human JAK1 catalytic domain; polyGT or Ulight-JAK1 peptide assay. An outline of the steps: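 Two formats. PolyGT radiometric: 45 min at 30 °C, stopped with phosphoric acid, counted as cpm. Ulight-JAK1 peptide: 60 min at room temperature, stopped with Eu-anti-phosphotyrosine/EDTA, read as RFU. Percent inhibition normalised to vehicle and 10 μM staurosporine.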

A further test has as its target T2, human JAK3 (Homo sapiens, UniProt P52333).
T2 construct: catalytic domain (amino acids 781-1124; catalog number PV3855); purchased Invitrogen PV3855
Kind of test: JAK3 inhibition assay. As to conditions: recombinant human JAK3 catalytic domain; polyGT substrate. The class given is biochemical. An outline of the steps:
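Radiometric kinase assay: 0.5 ng JAK3 with 2.5 μg polyGT in Tris pH 7.5/MgCl2 buffer, 1 μM ATP plus 0.25 μCi 33P-γ-ATP, 1% DMSO, 45 min at 30 °C, stopped with phosphoric acid.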

In the next test the target is T3, human TYK2 (Homo sapiens, UniProt P29597).
T3 construct: catalytic domain (amino acids 871-1187; catalog number 08-147); purchased Carna Biosciences 08-147
T3 sequence (P29597 871-1187): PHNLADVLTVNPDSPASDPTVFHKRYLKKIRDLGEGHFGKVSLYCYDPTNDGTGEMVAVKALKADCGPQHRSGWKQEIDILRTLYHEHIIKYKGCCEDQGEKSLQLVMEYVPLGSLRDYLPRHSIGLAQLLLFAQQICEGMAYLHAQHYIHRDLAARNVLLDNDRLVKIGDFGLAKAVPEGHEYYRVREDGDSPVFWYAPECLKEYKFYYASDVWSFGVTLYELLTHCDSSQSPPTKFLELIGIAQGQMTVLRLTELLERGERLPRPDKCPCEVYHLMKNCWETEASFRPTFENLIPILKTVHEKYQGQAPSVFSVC
Kind of test: TYK2 inhibition assay. Type of test: biochemical. As to conditions: recombinant human TYK2 catalytic domain, polyGT substrate. An outline of the steps:
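Radiometric kinase reaction run 90 min at 30 °C, stopped with phosphoric acid, washed and scintillation-counted.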

The test system of test [1] is pSTAT1(2)-luciferase reporter in HeLa cells triggered with human OSM. Kind of test: JAK-STAT signalling assay. Type of test: cell-based. As to conditions: read-out: JAK-STAT IC50. The procedure: JAK-STAT Signalling Assay
HeLa cells were maintained in Dulbecco's Modified Eagle's Medium (DMEM) containing 10% heat inactivated fetal calf serum, 100 U/mL penicillin and 100 μg/mL streptomycin. HeLa cells were used at 70% confluence for transfection. 20,000 cells in 87 μL cell culture medium were transiently transfected with 40 ng pSTAT1(2)-luciferase reporter (Panomics), 8 ng of LacZ reporter as internal control reporter and 52 ng of pBSK using 0.32 μL Jet-PEI (Polyplus) as transfection reagent per well in 96-well plate format. After overnight incubation at 37° C., 5% CO2, transfection medium was removed. 81 μL of DMEM+1.5% heat inactivated fetal calf serum was added. 9 μL compound at 10× concentration was added for 60 min and then 10 μL of human OSM (Peprotech) at 33 ng/mL final concentration.
After overnight incubation at 37° C., 5% CO2 cells were lysed by adding 100 μL lysis buffer/well (PBS, 0.9 mM CaCl2, 0.5 mM MgCl2, 10% Trehalose, 0.05% Tergitol NP9, 0.3% BSA).
40 μL of cell lysate was used to read β-galactosidase activity by adding 180 μL β-Gal solution (30 μL ONPG 4 mg/mL+150 μL β-Galactosidase buffer (0.06 M Na2HPO4, 0.04 M NaH2PO4, 1 mM MgCl2)) for 20 min.
Luciferase activity was measured using 40 μL cell lysate plus 40 μL of Steadylite as described by the manufacturer (Perkin Elmer), on the Envision (Perkin Elmer).
The positive and negative controls were used to calculate z′ and ‘percent inhibition’ (PIN) values.
Percentage inhibition=((fluorescence determined in the presence of vehicle−fluorescence determined for sample with test compound present)divided by(fluorescence determined in the presence of vehicle−fluorescence determined for sample without trigger))*100.
PIN values were plotted for compounds tested in dose-response and EC50 values were derived.

[2] abbreviates: Homo sapiens, HeLa, HeLa cells, pSTAT1(2)-luciferase reporter, human OSM 33 ng/mL.
The mark [3] stands for this setting: HeLa cells, pSTAT1(2)-luciferase reporter, human OSM 33 ng/mL.

SMILES strings stand for the structures. Read-outs that look alike come from different tables or passages of the source.

T2 sequence (P52333 781-1124): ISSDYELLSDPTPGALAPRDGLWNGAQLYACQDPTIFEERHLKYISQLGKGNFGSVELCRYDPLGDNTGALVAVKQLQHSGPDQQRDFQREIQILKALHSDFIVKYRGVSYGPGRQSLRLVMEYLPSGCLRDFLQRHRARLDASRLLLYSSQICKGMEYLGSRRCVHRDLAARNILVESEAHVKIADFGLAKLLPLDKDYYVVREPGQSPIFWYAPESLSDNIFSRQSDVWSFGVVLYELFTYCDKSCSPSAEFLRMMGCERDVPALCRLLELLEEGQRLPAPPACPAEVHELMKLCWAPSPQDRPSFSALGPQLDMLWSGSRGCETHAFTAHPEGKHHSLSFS
T1 sequence (P23458 866-1154): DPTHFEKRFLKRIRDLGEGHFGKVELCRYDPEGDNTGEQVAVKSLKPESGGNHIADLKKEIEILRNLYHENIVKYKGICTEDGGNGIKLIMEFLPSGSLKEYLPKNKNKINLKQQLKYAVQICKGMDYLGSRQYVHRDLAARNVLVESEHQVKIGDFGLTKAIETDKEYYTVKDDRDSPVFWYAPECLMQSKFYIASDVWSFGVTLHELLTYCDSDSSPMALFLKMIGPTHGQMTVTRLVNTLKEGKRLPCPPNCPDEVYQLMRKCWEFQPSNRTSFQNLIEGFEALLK

`CCc1cc(-c2nnc(C)o2)ccc1N(C)c1cc2c(cn1)ncn2C` [Compound 177, N-(2-Ethyl-4-(5-methyl-1,3,4-oxadiazol-2-yl)phenyl)-N,1-dimethyl-1H-imidazo[4,5-d]pyridin-6-amine]: the IC50 was 0.01 to 100 nM on human JAK1, > 1000 nM at human JAK3, 0.01 to 100 nM on human TYK2 and 501 to 1000 nM in test [1] (setting [2]).

As for `CCc1cc(C2=CCN(C(=O)OCC#N)CC2)ccc1N(C)c1cc2c(cn1)ncn2C` [Compound 216, Cyanomethyl 4-(3-ethyl-4-(methyl(1-methyl-1H-imidazo[4,5-c]pyridin-6-yl)amino)phenyl)-5,6-dihydropyridine-1(2H)-carboxylate], the IC50 at human JAK1 is 0.01 to 100 nM; at human JAK3 it was 101 to 500 nM; on human TYK2, 0.01 to 100 nM; in test [1] (Homo sapiens, HeLa), > 1000 nM.

With `CCc1cc(-c2cnn(CC(=O)N(C)C)c2)ccc1N(C)c1cc2c(cn1)ncn2C` [Compound 220, 2-(4-(3-ethyl-4-(methyl(1-methyl-1H-imidazo[4,5-c]pyridin-6-yl)amino)phenyl)-1H-pyrazol-1-yl)-N,N-dimethylacetamide], the IC50 on human JAK1 fell in the range of 0.01 to 100 nM; on human JAK3, 101 to 500 nM; on human TYK2 it was 0.01 to 100 nM; in test [1] (setting [2]) it was 501 to 1000 nM.

Take `CN(c1cc2c(cn1)ncn2C)c1ccc(C2CN(S(C)(=O)=O)C2)cc1F` [Compound 277, [2-Fluoro-4-(1-methanesulfonyl-azetidin-3-yl)-phenyl]-methyl-(1-methyl-1H-imidazo[4,5-c]pyridin-6-yl)-amine]: the IC50 was 0.01 to 100 nM at human JAK1, 101 to 500 nM at human JAK3, 501 to 1000 nM on human TYK2 and > 1000 nM in test [1] (setting [3]).

For `CCc1cc(C2=CCN(C(=O)NC3COC3)CC2)ccc1N(C)c1cc2c(cn1)ncn2C` [Compound 215], the IC50 is 0.01 to 100 nM on human JAK1, 101 to 500 nM at human JAK3, 0.01 to 100 nM at human TYK2 and > 1000 nM in test [1] (setting [2]).

For the compound `CCc1cc(C2=CCN(C(=O)Nc3ncns3)CC2)ccc1N(C)c1cc2c(cn1)ncn2C` [Compound 257, 4-(3-Ethyl-4-(methyl(1-methyl-1H-imidazo[4,5-c]pyridin-6-yl)amino)phenyl)-N-(1,2,4-thiadiazol-5-yl)-5,6-dihydropyridine-1(2H)-carboxamide], the IC50 on human JAK1 lay within 0.01 to 100 nM; on human JAK3, 0.01 to 100 nM; on human TYK2, 0.01 to 100 nM; in test [1] (setting [2]), 1 to 500 nM.

On to `CCc1cc(-c2cnn(CC(=O)C(C)(C)C)c2)ccc1N(C)c1cc2c(cn1)ncn2C` [Compound 221, 1-(4-(3-ethyl-4-(methyl(1-methyl-1H-imidazo[4,5-c]pyridin-6-yl)amino)phenyl)-1H-pyrazol-1-yl)-3,3-dimethylbutan-2-one], for which the half-inhibitory concentration (IC50) on human JAK1 is 0.01 to 100 nM; on human JAK3, > 1000 nM; on human TYK2, 101 to 500 nM; in test [1] (setting [2]) it was > 1000 nM.

Take `CCc1cc(CNC(=O)OC)ccc1N(C)c1cc2c(cn1)ncn2C` [Compound 191, Methyl 3-ethyl-4-(methyl(1-methyl-1H-imidazo[4,5-c]pyridin-6-yl)amino)benzyl carbamate]: the IC50 lay within 0.01 to 100 nM at human JAK1, 101 to 500 nM at human JAK3, 101 to 500 nM on human TYK2 and 501 to 1000 nM in test [1] (setting [2]).

With `CCc1cc(-c2noc(CC#N)n2)ccc1N(C)c1cc2c(cn1)ncn2C` [Compound 148, 2-(3-(3-ethyl-4-(methyl(1-methyl-1H-imidazo[4,5-c]pyridin-6-yl)amino)phenyl)-1,2,4-oxadiazol-5-yl)acetonitrile], the IC50 at human JAK1 lay within 0.01 to 100 nM; at human JAK3 it was 501 to 1000 nM; at human TYK2 it was 0.01 to 100 nM; in test [1] (setting [2]) it was 501 to 1000 nM.

As for `CCc1cc(-c2noc(C)n2)ccc1N(C)c1cc2c(cn1)ncn2C` [Compound 147, N-(2-ethyl-4-(5-methyl-1,2,4-oxadiazol-3-yl)phenyl)-N,1-dimethyl-1H-imidazo[4,5-c]pyridin-6-amine], the IC50 at human JAK1 was 0.01 to 100 nM; at human JAK3, > 1000 nM; at human TYK2, 0.01 to 100 nM; in test [1] (setting [2]) it was 501 to 1000 nM.

For `CCc1cc(-c2cnn(Cc3ccc(F)cc3)c2)ccc1N(C)c1cc2c(cn1)ncn2C` [Compound 238, N-(2-ethyl-4-(1-(4-fluorobenzyl)-1H-pyrazol-4-yl)phenyl)-N,1-dimethyl-1H-imidazo[4,5-c]pyridin-6-amine], the IC50 at human JAK1 lay within 0.01 to 100 nM; at human JAK3, 101 to 500 nM; at human TYK2, 0.01 to 100 nM; in test [1] (setting [2]), 1 to 500 nM.

In the case of `CCc1cc(-c2cnn(Cc3ccc(C)cc3)c2)ccc1N(C)c1cc2c(cn1)ncn2C` [Compound 237, N-(2-ethyl-4-(1-(4-methylbenzyl)-1H-pyrazol-4-yl)phenyl)-N,1-dimethyl-1H-imidazo[4,5-c]pyridin-6-amine], the IC50 is 0.01 to 100 nM on human JAK1, 101 to 500 nM at human JAK3, 0.01 to 100 nM at human TYK2 and 1 to 500 nM in test [1] (setting [2]).

On to `CCc1cc(O[C@@H]2CCN(S(C)(=O)=O)C2)ccc1N(C)c1cc2c(cn1)ncn2C` [Compound 259, (R)-N-(2-ethyl-4-(1-(methylsulfonyl)pyrrolidin-3-yloxy)phenyl)-N,1-dimethyl-1H-imidazo[4,5-c]pyridin-6-amine], for which the IC50 was 0.01 to 100 nM on human JAK1, 501 to 1000 nM at human JAK3, 101 to 500 nM at human TYK2 and 501 to 1000 nM in test [1] (setting [2]).

Turning to `CCc1cc(-c2cnn(CCN3CCCC3)c2)ccc1N(C)c1cc2c(cn1)ncn2C` [Compound 219, N-(2-ethyl-4-(1-(2-(pyrrolidin-1-yl)ethyl)-1H-pyrazol-4-yl)phenyl)-N,1-dimethyl-1H-imidazo[4,5-c]pyridin-6-amine], the 50% inhibitory concentration (IC50) on human JAK1 is 0.01 to 100 nM; at human JAK3, > 1000 nM; at human TYK2 it was 0.01 to 100 nM; in test [1] (setting [2]), 1 to 500 nM.

With `COc1cc(C2CCN(S(C)(=O)=O)CC2)ncc1N(C)c1cc2c(cn1)ncn2C` [Compound 276], the IC50 on human JAK1 was 0.01 to 100 nM; on human JAK3 it was > 1000 nM; at human TYK2, > 1000 nM; in test [1] (setting [3]), > 1000 nM.

Regarding `CCc1cc(C2CCN(C(=O)CC#N)CC2)ccc1N(C)c1cc2c(cn1)ncn2C` [Compound 224, 3-(4-(3-ethyl-4-(methyl(1-methyl-1H-imidazo[4,5-c]pyridin-6-yl)amino)phenyl)piperidin-1-yl)-3-oxopropanenitrile], the IC50 on human JAK1 fell in the range of 0.01 to 100 nM; on human JAK3, 101 to 500 nM; on human TYK2, 0.01 to 100 nM; in test [1] (setting [3]), 501 to 1000 nM.

With `CCc1cc(-c2cnc(C(C)C)nc2)ccc1N(C)c1cc2c(cn1)ncn2C` [Compound 140, N-(2-ethyl-4-(2-isopropylpyrimidin-5-yl)phenyl)-N,1-dimethyl-1H-imidazo[4,5-c]pyridin-6-amine], the IC50 was 0.01 to 100 nM on human JAK1, > 1000 nM at human JAK3, 101 to 500 nM on human TYK2 and > 1000 nM in test [1] (setting [2]).

Turning to `CCC(=O)N1CCC(c2ccc(N(C)c3cc4c(cn3)ncn4C)c(CC)c2)CC1` [Compound 223, 1-(4-(3-ethyl-4-(methyl(1-methyl-1H-imidazo[4,5-c]pyridin-6-yl)amino)phenyl)piperidin-1-yl)propan-1-one], the IC50 lay within 0.01 to 100 nM on human JAK1, 101 to 500 nM on human JAK3, 0.01 to 100 nM at human TYK2 and 1 to 500 nM in test [1] (setting [3]).
